Source: patent US20090298934A1, “Diamidine Inhibitors of TDP1” (GOVERNMENT OF THE US, AS REPRESENTED BY THE SECRET, priority 2006, published 2009)

Columns and labels:
[1] = molecular target: T1, Tdp1 (Homo sapiens, UniProt Q9NUW8); experiment: Tdp1 gel assay (32P-labeled 14Y / D14Y / 14Y-CC substrates, denaturing PAGE, densitometry); assay type: biochemical; conditions: for Ability to inhibit Tdp1 activity in the 14Y substrate (gel): 25 nM 14Y, 1 ng Tdp1, 20 min, pH 8.0, 25° C.; for Conversion half-time (t) of 14Y: 1.9 min in the absence of drug
T1 construct: His tag with thrombin site and linker (printed […] = X1; made in house; host or cells: E. coli BL21 (Novagen), plasmid pHN1910 in vector pET 15b
T1 sequence (Q9NUW8 whole entry): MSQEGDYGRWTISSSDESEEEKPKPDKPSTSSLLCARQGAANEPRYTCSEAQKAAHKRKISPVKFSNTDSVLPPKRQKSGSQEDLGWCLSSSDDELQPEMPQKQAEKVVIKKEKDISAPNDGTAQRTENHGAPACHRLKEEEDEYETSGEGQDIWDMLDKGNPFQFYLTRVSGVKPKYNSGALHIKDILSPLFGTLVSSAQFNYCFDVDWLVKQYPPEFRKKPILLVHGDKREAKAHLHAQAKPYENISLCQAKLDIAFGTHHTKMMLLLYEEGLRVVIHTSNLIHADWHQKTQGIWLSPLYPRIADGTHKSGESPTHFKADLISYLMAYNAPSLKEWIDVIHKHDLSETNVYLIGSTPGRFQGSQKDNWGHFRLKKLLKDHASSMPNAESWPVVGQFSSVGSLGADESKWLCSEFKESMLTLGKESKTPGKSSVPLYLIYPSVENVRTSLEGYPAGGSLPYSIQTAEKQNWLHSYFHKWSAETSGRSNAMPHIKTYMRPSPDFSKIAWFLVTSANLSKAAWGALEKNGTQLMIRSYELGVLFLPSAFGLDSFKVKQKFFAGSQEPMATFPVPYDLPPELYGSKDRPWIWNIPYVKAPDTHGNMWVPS
Excerpt: FIG. 7. […] A, Schematic representation of the Tdp1 biochemical assay. The partially duplex […] D14Y or single stranded 14Y was used as a substrate. ^32P-Radiolabeling (*) was at the 5′ terminus of the 14-mer strand. Tdp1 catalyzes the hydrolysis of the 3′-phosphotyrosine bond and converts 14Y and D14Y to an oligonucleotide with 3′-phosphate, 14P or D14P respectively. […] Arrows indicate the 3′-phosphate oligonucleotide product (14P) that runs quicker than the corresponding tyrosyl oligonucleotide substrate (14Y) in a denaturing PAGE. The duplex D14Y substrate and D14P product are detected on the gel by their corresponding labeled single strands (14Y and 14P), as they are no longer annealed under the denatured conditions.
FIG. 9. […] Aliquots were taken at the indicated times (min). Reaction products were analyzed by denaturing PAGE. B, densitometry analysis of the gel shown in A. Tdp1 activity measured as the percentage of DNA substrate 14Y converted to 14P (Left panel) or substrate 14Y remaining (Right panel) as a function of reaction time. […] A representative gel is shown. D, densitometry analysis of the gel shown in C. Tdp1 activity was calculated as the percentage of DNA substrate 14Y converted to 14P.
FIG. 10. […] A, Sequences of the oligonucletotide substrates 14Y and 14Y-CC, which differ in their 3′-terminal bases being a -TT or a -CC that is linked to the phosphotyrosine. B, Reactions (100 μl) containing either 25 nM 14Y or 14Y-CC and 5 ng of Tdp1 was incubated at pH 8.0 at 25° C. Aliquots were taken at the indicated times (min). Reaction products were analyzed by denaturing PAGE. C, densitometry analysis of the gel shown in B. Tdp1 activity measured as the percentage of DNA substrates 14Y or 14Y-CC converted to their corresponding products as a function of reaction time. […] A representative gel is shown. E, densitometry analysis of the gel shown in D. Tdp1 activity was calculated as the percentage of DNA substrates 14Y or 14Y-CC converted to their product.
FIG. 11. […] R; common chemical moiety. […] Samples were separated on a 20% Urea-PAGE gel and visualized.
Preparation of Tdp1 substrates: HPLC purified oligonucleotides N14Y (Plo et al., (2003) DNA Repair (Amst) 2(10):1087-1100) were labeled at their 5′-end with [γ-^32P]-ATP (Perkin-Elmer Life Science Co., Boston, Mass.) by incubation with 3′-phosphatase free T4 polynucleotide kinase (Roche applied Science, Indianapolis, Ind.) according to the manufacturer's protocols. Unincorporated nucleotides were removed by Sephadex G-25 spin-column chromatography (Mini Quick Spin Oligo Columns, Roche, Indianapolis, Ind.). For the production of the oligonucleotide duplexes D14Y, N14Y was mixed with the complementary oligonucleotide in equal molar ratios in annealing buffer (10 mM Tris-HCl pH 7.5, 100 mM NaCl, 10 mM MgCl2), heated to 96° C., and allowed to cool down slowly (over 2 h) to room temperature. Tdp1 assays: Unless indicated otherwise, Tdp1 assays are performed in 20 μl mixtures containing 50 mM Tris-HCl, pH 8.0, 80 mM KCl, 2 mM EDTA, 1 mM dithiothreitol (D)T, and 40 μg/ml bovine serum albumin (BSA). For initial screening of Tdp1 inhibitors, 25 nM of 5′-^32P-labeled substrate (D14Y) is reacted with 1 ng Tdp1 (≈0.7 nM) in the absence or presence of inhibitor for 20 min at 25° C. Reactions are stopped by addition of 60 μl of gel loading buffer (98% (v/v) formamide, 1% (w/v) xylene cyanol, 1% (w/v) bromophenol blue). Twelve μl of aliquots are resolved in 20% denaturing polyacrylamide (AccuGel, National Diagnostics, Atlanta, Ga.) (19:1) gel containing 7 M urea. After drying, gels are exposed overnight to PhosphorImager screens (Molecular Dynamics, Sunnyvale, Calif.). Screens are scanned, and images are obtained with the Molecular Dynamics software (Sunnyvale, Calif.). Densitometry analyses are performed using ImageQuant 5.2 software package (Amersham Biosciences, Piscataway, N.J.).

[2] = molecular target: T1, Tdp1; experiment: High-throughput electrochemiluminescent (ECL) Tdp1 assay; assay type: biochemical
Excerpt: High-throughput electrochemiluminescene assay developed to identify novel Tdp1 inhibitors. […] This leads to a loss of the chemiluminescence signal. Positive hits for potential Tdp1 inhibitors prevent this loss of signal. C, Signal response curve in the presence of increasing concentrations (nM) of Tdp1.
A, Graph representing the effect of 1981 compounds in the NCI-DTP diversity set on Tdp1 activity at 10 pM. Each dot indicates a signal value for a tested sample. The substrate chemiluminescence (Arbitrary units; A.U.) in the absence of Tdp1 averages at 16313±1084 (n=200; where “n” indicates the number of samples). In the presence of Tdp1 the loss of signal averages at 8784±559 (n=100). The effect of 1981 compounds screened is represented. Positive Tdp1 inhibitors prevent the loss of signal. […] Vanadate at 10 mM was used for comparison.

Row | Structure (SMILES) | IC50 ([1]; IC50 ds14Y, double-stranded 14Y substrate) [µM] | IC50 ([1]; IC50 ss14Y, single-stranded 14Y substrate) [µM] | Ability to inhibit Tdp1 activity in the 14Y substrate (gel) [1] | ECL signal value (substrate chemiluminescence) ([2]; 10 μM compound, without Tdp1 16313±1084, with Tdp1 8784±559) [A.U.] | inhibition at 10 µM ([2]; at 10 μM) [%] | inhibition at 30 µM ([1]; 30 μM compound, 0.1 ng of Tdp1, 14Y) [%] | Inhibition of Tdp1 activity after increasing Tdp1 ([1]; 30 μM compound, Tdp1 increased to 1 ng, 14Y) | Conversion half-time (t) of 14Y ([1]; 30 μM compound) [min] | Conversion half-time (t) of 14Y ([1]; 60 μM compound) [min] | Type of Tdp1 inhibition ([1]; dependence on reaction time and Tdp1 concentration)
1 | CN(C)C1C(O)=C(C(=O)NCN2CCN(C(=N)NC(=N)N)CC2)C(=O)C2(O)C(O)=C3C(=O)c4c(O)cccc4C(C)(O)C3CC12 (centres unmarked) [Compound (a)] | 19 | 12 | – | – | – | – | – | – | – | –
2 | CC(=O)NCC(=O)O.CC(=O)NCC(=O)O.N=C(N)c1ccc(N=NNc2ccc(C(=N)N)cc2)cc1 [Berenil, reference compound] | – | – | some activity, albeit at a high concentration (300 μM) | – | – | – | – | – | – | –
3 | N=C(N)c1ccc(-c2ccc(-c3ccc(C(=N)N)cc3)o2)cc1 [Compound (b), 2,5-di-(4-phenylamidine)furan] | – | – | exhibits an inhibition of Tdp1 activity at 30 μM | 16910 | 100 | 50 | almost completely reversed | 2.7 | 4.4 | reversible inhibition
